Measured values as given in patent US12064516B2, “Pharmaceutical formulations and uses thereof” (Aldeyra Therapeutics, Inc., priority 2020, dated 2024).
Read-outs that look alike come from different tables or passages of the source.

Experiment: Pharmacokinetics of compound I-1 in the dog by intravenous, oral gavage and oral capsule routes
Type: in vivo, beagle dogs
Conditions: male, beagle, dog, plasma; for concentration at 4 h / concentration at 8 h / concentration at 12 h / concentration at 0.25 h / concentration at 0.5 h / concentration at 1 h / concentration at 2 h: read-out: Concentration at time point; for bioavailability: read-out: BioA (bioavailability)
Experimental: A pharmacokinetic study was conducted to compare the bioavailability of capsule and suspension oral formulations vs. an intravenous formulations.
The standard curve was prepared from 1 to 2,000 ng/mL. QC samples were prepared at […]. Dilution QCs were prepared at 10-fold dilution. Deuterated (d6) I-1 (compound 1-7) was used as an internal standard. A 50 μL aliquot of sample was added to 150 μL of cold internal standard in acetonitrile to effect protein precipitation. The resulting supernatants were analyzed by LCMS. Diluted sample data was utilized only for over-the-curve results.
Briefly, 9 male non-naïve beagle dogs were assigned in groups of 3 to 3 dose groups. Group 1 was dosed 3 mg/kg by the intravenous route in a vehicle of 20% sulfobutylether-β-cyclodextrin (SBECD). Group 2 was dosed 10 mg/kg by the oral gavage route in a vehicle of 0.5% methylcellulose (MC). Group 3 was dosed with 100 mg capsules.
The I-1 100 mg capsules are manufactured as a non-sterile spray dried, granulated powder blend. The blend is then filled into capsules for oral delivery. The capsules are packaged in high-density polyethylene bottles. The quantitative composition of the I-1 100 mg capsule is presented above in Table B.
Procedure: (PO) gavage: formulations will be administered via a rubber oral gavage tube followed by a 10 mL flush with drinking water. (PO) tablet: tablets will be administered orally by placing the tablet in the back of the throat followed by a 10 mL flush with water.
Frequency: Pre-dose, 5, 15, 30 min, 1, 2, 4, 8, and 12 hrs post-dose (IV); pre-dose, 15, 30 min, 1, 2, 4, 8, and 12 hrs post-dose (PO by gavage and PO by capsule).
Blood collection: each blood sample will be collected from the dog's jugular vein or other accessible vein via direct venepuncture, placed into a pre-labeled tube containing K2EDTA and kept on ice until centrifugation.
Plasma preparation and storage: Certifuged at 4 C at 3,000× for 5 mm. Stored in a freezer until analysed.
Pharmacokinetics package PKSolver2.0™ has been validated against WinNonLin™ as a tool for non-GLP studies and was used to process the pharmacokinetic data.
For each route, the average data were processed with non-compartmental, one compartment, and two compartment models. The models were assessed for goodness of fit and the accuracy of the model to assess the biphasic data, with either a) no weighting, b) 1/concentration observed, or c) 1/concentration observed squared. 1/concentration predicted, and 1/concentration predicted squared weightings were also assessed for best fit. […] The zeros were averaged with the 71.5 value for a resulting average of 23.8. For the In Group 2 (PO Gavage) subject 3 experienced 30 mL of emesis, so the dose assigned to that subject was 7.46. In all cases, the subjects were modelled individually, and the individual PK parameters were averaged to provide final parameters.
For group 1 (intravenous) the final model selected was a two compartment model with 1/concentration observed squared weighting.
For group 2 (oral gavage) the final model was a two compartment extravascular model with 1/concentration predicted squared weighting.
For group 3 (oral capsule) the final model was a one compartment extravascular model with a lag time and no weighting. […] The body weight of each animal was used to assign a mg/kg dose to each individual. Subject 1 was dosed at 7.69 mg/kg. Subject 2 was 6.94 mg/kg, and Subject 3 was 6.99 mg/kg.

[1] = oral, 7 mg/kg, Group 3: PO Capsule 7 mg/kg, Subject 1
[2] = oral, 7 mg/kg, Group 3: PO Capsule 7 mg/kg, Subject 2
[3] = oral, 7 mg/kg, Group 3: PO Capsule 7 mg/kg, Subject 3
[4] = oral, 7 mg/kg, Group 3: PO Capsule 7 mg/kg, Average
[5] = oral, 7.2 mg/kg, 100 mg Capsule, average dose 7.2 mg/kg, Average
[6] = po, 7.2 mg/kg, 100 mg Capsule, average dose 7.2 mg/kg, Average
[7] = po, 7.2 mg/kg, 100 mg Capsule, average dose 7.2 mg/kg, Subj1
[8] = po, 7.2 mg/kg, 100 mg Capsule, average dose 7.2 mg/kg, Subj2
[9] = po, 7.2 mg/kg, 100 mg Capsule, average dose 7.2 mg/kg, Subj3
[10] = po, 10 mg/kg, Group 2: PO Gavage 10 mg/kg, Average
[11] = po, 10 mg/kg, Group 2: PO Gavage 10 mg/kg, Subject 1
[12] = po, 10 mg/kg, Group 2: PO Gavage 10 mg/kg, Subject 2
[13] = po, 10 mg/kg, Group 2: PO Gavage 10 mg/kg, Subject 3
[14] = po, 10 mg/kg, Oral Gavage 0.5% Methylcellulose 10 mg/kg, Average
[15] = po, 10 mg/kg, Oral Gavage 0.5% Methylcellulose 10 mg/kg, Subj1
[16] = po, 10 mg/kg, Oral Gavage 0.5% Methylcellulose 10 mg/kg, Subj2
[17] = po, 10 mg/kg, Oral Gavage 0.5% Methylcellulose 10 mg/kg, Subj3

Structure (SMILES): CC(C)(O)c1nc2ccccc2cc1N [I-1]
- concentration at 4 h [1]: 1070 ng/mL
- concentration at 4 h [2]: 736 ng/mL
- concentration at 4 h [3]: 1150 ng/mL
- concentration at 8 h [4]: 223 ng/mL
- concentration at 8 h [1]: 195 ng/mL
- concentration at 8 h [2]: 147 ng/mL
- concentration at 8 h [3]: 327 ng/mL
- concentration at 12 h [4]: 94.5 ng/mL
- concentration at 12 h [1]: 58.7 ng/mL
- concentration at 12 h [2]: 58 ng/mL
- concentration at 12 h [3]: 167 ng/mL
- Tmax [5]: 2.37 h
- bioavailability [5]: 83%
- concentration at 0.25 h (oral, 100 mg, Group 3: PO Capsule 7 mg/kg, Average): 23.8 ng/mL
- concentration at 0.25 h (oral, 100 mg, Group 3: PO Capsule 7 mg/kg, Subject 2): 71.5 ng/mL
- AUC(0-inf) [6]: 8170 ng·h/mL
- AUC(0-t) [6]: 8080 ng·h/mL
- Cmax [6]: 1700 ng/mL
- half-life [6]: 1.33 h
- AUC(0-inf) [7]: 7350 ng·h/mL
- AUC(0-t) [7]: 7240 ng·h/mL
- Cmax [7]: 1390 ng/mL
- Tmax [7]: 2.57 h
- half-life [7]: 1.38 h
- AUC(0-inf) [8]: 5610 ng·h/mL
- AUC(0-t) [8]: 5490 ng·h/mL
- Cmax [8]: 986 ng/mL
- Tmax [8]: 2.37 h
- half-life [8]: 1.49 h
- AUC(0-inf) [9]: 11600 ng·h/mL
- AUC(0-t) [9]: 11500 ng·h/mL
- Cmax [9]: 2730 ng/mL
- Tmax [9]: 2.16 h
- half-life [9]: 1.1 h
- concentration at 0.25 h [10]: 2480 ng/mL
- concentration at 0.25 h [11]: 3360 ng/mL
- concentration at 0.25 h [12]: 2760 ng/mL
- concentration at 0.25 h [13]: 1310 ng/mL
- concentration at 0.5 h [10]: 4320 ng/mL
- concentration at 0.5 h [11]: 5400 ng/mL
- concentration at 0.5 h [12]: 4290 ng/mL
- concentration at 0.5 h [13]: 3260 ng/mL
- concentration at 1 h [10]: 2700 ng/mL
- concentration at 1 h [11]: 2970 ng/mL
- concentration at 1 h [12]: 2610 ng/mL
- concentration at 1 h [13]: 2520 ng/mL
- concentration at 2 h [10]: 1420 ng/mL
- concentration at 2 h [11]: 1890 ng/mL
- concentration at 2 h [12]: 1470 ng/mL
- concentration at 2 h [13]: 908 ng/mL
- concentration at 4 h [10]: 787 ng/mL
- concentration at 4 h [11]: 909 ng/mL
- concentration at 4 h [12]: 909 ng/mL
- concentration at 4 h [13]: 541 ng/mL
- concentration at 8 h [10]: 157 ng/mL
- concentration at 8 h [11]: 131 ng/mL
- concentration at 8 h [12]: 233 ng/mL
- concentration at 8 h [13]: 108 ng/mL
- concentration at 12 h [10]: 45.1 ng/mL
- concentration at 12 h [11]: 28.1 ng/mL
- concentration at 12 h [12]: 59.1 ng/mL
- concentration at 12 h [13]: 48.1 ng/mL
- AUC(0-inf) [14]: 9550 ng·h/mL
- AUC(0-t) [14]: 9360 ng·h/mL
- Cmax [14]: 3560 ng/mL
- Tmax [14]: 0.518 h
- half-life [14]: 3.02 h
- bioavailability [14]: 75%
- AUC(0-inf) [15]: 11200 ng·h/mL
- AUC(0-t) [15]: 11100 ng·h/mL
- Cmax [15]: 4350 ng/mL
- Tmax [15]: 0.459 h
- half-life [15]: 2.85 h
- AUC(0-inf) [16]: 10100 ng·h/mL
- AUC(0-t) [16]: 9910 ng·h/mL
- Cmax [16]: 3670 ng/mL
- Tmax [16]: 0.46 h
- half-life [16]: 2.13 h
- AUC(0-inf) [17]: 7330 ng·h/mL
- AUC(0-t) [17]: 7050 ng·h/mL
- Cmax [17]: 2650 ng/mL
- Tmax [17]: 0.635 h
- half-life [17]: 4.08 h
